Measured values reported in patent EP0702683B1, “06-SUBSTITUTED GUANINE DERIVATIVES, A PROCESS FOR THEIR PREPARATION AND THEIR USE IN TREATING TUMOUR CELLS” (Cancer Research Technology Limited, priority 1993, dated 1994).
Like-named read-outs stand apart in the source and are kept apart here.

Key:
[1] = Growth inhibition of V79 cells by inactivator alone; assay type: cell-based, Chinese hamster; conditions: chinese hamster, v79 cells, Figure 5
Description: In order to assess the effects on cell growth alone, Xeroderma pigmentosum cells and Chinese Hamster V79 cells were exposed to increasing concentrations (up to 600µM) of selected inactivators for 2h at 37°. In some cases, the inactivators were allowed to undergo hydrolysis at 37°C for 20 hours and then added to […] in order to assess the extent to which the decomposition products of the agents might inhibit cell growth. After 6 days the extent of cell growth was determined as described above.

ATase = biological target: T1, ATase (Cricetulus griseus, UniProt P26186); assay: Inactivation of ATase activity in Hamster +120 cells; assay type: cell-based, Chinese hamster; conditions: 2 hours at 37°C, read-out: Inactivation of ATase in Mammalian Cells I50(µM) Hamster + 120
T1 construct: endogenous in cells; host or cells: Hamster +120 (V79 RJKO subline)
T1 sequence (P26186 1-209): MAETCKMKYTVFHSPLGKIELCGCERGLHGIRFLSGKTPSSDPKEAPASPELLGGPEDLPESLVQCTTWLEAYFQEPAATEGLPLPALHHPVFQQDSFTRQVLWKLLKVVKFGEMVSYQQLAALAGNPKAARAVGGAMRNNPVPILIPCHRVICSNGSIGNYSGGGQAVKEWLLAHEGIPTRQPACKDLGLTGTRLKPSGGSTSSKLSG
Description: Mammalian cells were cultured under standard conditions. For example, Raji (a human lymphoblastoid cell line from a Burkitt's lymphoma) cells were grown in suspension culture in RPMI medium supplemented with 10% horse serum. […]
Cells were diluted to 10^6/ml in culture medium containing either the appropriate concentration of inactivator or an equivalent volume of vehicle (DMSO). […] ATase activity was determined as described above, in duplicate sonicated cell extracts and expressed as the percentage activity remaining based on that present in the untreated controls (for example 350-450 fm/mg in Raji cells).

[2] = Inactivator toxicity in bone marrow cells (GM-CFC colonies, inactivator alone); assay type: cell-based, human; conditions: human, bone marrow gm-cfc, inactivator 10uM, read-out: No. of colonies as % of control (ie no inactivator)
Description: (§1) For the granulocyte/macrophage colony-forming cell (GM-CFC) assay primary human bone marrow samples were obtained from patients undergoing cardiothoracic surgery. […] The colonies represented precursor cells of the granulocyte/macrophage lineage (huGM-CFC). […]

bone marrow cells = assay: as above; assay type: cell-based, human; conditions: 10uM, 5 patients A - E, Table 7, in words
Description: as §1

human bone marrow cells = assay: Sensitization of bone marrow cells to temozolomide (GM-CFC assay); assay type: cell-based; conditions: for sensitization effect on human bone marrow cells to temozolomide, compared with 0^6-benzylguanine: 10µM inactivator, Figure 14, in words
Description: For the granulocyte/macrophage colony-forming cell (GM-CFC) assay primary human bone marrow samples were obtained from patients undergoing cardiothoracic surgery. […] The colonies represented precursor cells of the granulocyte/macrophage lineage (huGM-CFC). Survival was expressed as a % of the number of colonies at zero dose temozolomide.

A375 tumour xenografts = assay: Sensitization of A375 tumour xenografts to BCNU (tumour volume); assay type: in vivo, nude mice; conditions: 30 or 60 mg/kg i.p. 60 - 90 minutes prior to 10 - 25 mg/kg BCNU, Figs. 9-13, in words
Description: 0X6 OPT, England (OLAC mice). […] For this reason lower doses were administered.
A375M (human melanoma) cells were grown in DMEM containing 10% fetal bovine serum. The cells were prepared for in vivo inoculation by incubation with 0.01% trypsin.
Cells (10^6) in 100µl of PBS were injected subcutaneously into the right-hand flank of 8-10 week old nu/nu athymic mice. These cells were allowed to develop into a tumour for 3-4 weeks for passaging into experimental animals. Tumour blocks measuring 2mm x 2mm x 2mm were implanted subcutaneously on the right hand flank. These animals were ready for use in inactivator experiments in 7-10 days.
Xenograft tumour measurements were taken every 1-2 days by workers using digital calipers. Tumour volume was calculated using the formula (h x w x 1) π/6. The experimental animals were also weighed every 1-2 days. Measurements continued until tumours in the control animals reached the maximum allowable volume (i.e. 1cm x 1cm x 1cm).

Raji cells = assay: Sensitization of Raji cells to temozolomide (XTT assay); assay type: cell-based, human
Description: Following a 2 hour incubation at 37°C, medium containing either increasing doses of BCNU, temozolomide or equivalent vehicle was added and the cells allowed to grow for 6 days. At this time XTT solution was added and the cells incubated for a further 4 hours at 37°C. The resulting red/orange formazan reaction product was quantified by measuring absorption at 450nm on a microtitre platereader.

SMILES | selectivity ratio ([1]; read-out: growth inhibitory dose in V79 cells relative to the I50 dose) | MCC at 2 h ([1]; inactivator alone, up to 600µM, 2h at 37°, read-out: doses producing some growth inhibition of V79 cells) | IC50 (ATase) | viability at 216 h, 10 µM ([2]; Patient A) | viability at 216 h, 10 µM ([2]; Patient B) | viability at 216 h, 10 µM ([2]; Patient C) | viability at 216 h, 10 µM ([2]; Patient D) | viability at 216 h, 10 µM ([2]; Patient E) | toxic effect of inactivator alone on bone marrow cells, compared with 0^6-benzylguanine (bone marrow cells) | sensitization effect on human bone marrow cells to temozolomide, compared with 0^6-benzylguanine (human bone marrow cells; patient D) | sensitization effect on human bone marrow cells to temozolomide, compared with 0^6-benzylguanine (human bone marrow cells; patients C & E) | sensitization of GM-CFCs in human bone marrow samples to the toxic effects of temozolomide (human bone marrow cells; three samples tested (BeG: all three; B.4205: two of these), Fig. 14, in words) | reducing tumour volume / sensitising human melanoma xenografts to BCNU, compared with BeG (A375 tumour xenografts) | sensitising Raji cells to the growth inhibitory effects of temozolomide, compared with BeG (Raji cells; 0.1uM inactivator, Figure 3, in words) | dose response of sensitization of Raji cells to temozolomide (Raji cells; inactivator 0.1 to 5.0µM, Figures 3 and 4, in words)
Nc1nc(OCc2ccco2)c2nc[nH]c2n1 [B.4203, O^6-furfurylguanine] | ≥ 100 | > 100 µM | 0.12 µM |  |  |  |  |  |  |  |  |  |  |  | 
Nc1nc(OCc2cccs2)c2nc[nH]c2n1 [B.4205, O^6-thenylguanine] |  |  |  | 91% | 46% | 97% | 118% | 89% | comparable to those for 0^6-benzylguanine | no differential | smaller sensitization effect than 0^6-benzylguanine | little or no sensitization | comparable to 0^6-benzylguanine (BeG) | more effective than BeG | lack of dose response
